Calls of active or inactive are those of the source. No rule for the calls is given here.
System: CCRIS mutagenicity, Ames/micronucleus/aberration tests
Experiment: CCRIS mutagenicity studies
Conditions: Test System: AMES SALMONELLA TYPHIMURIUM
[1] = Strain/Indicator: TA97, Metabolic Activation: NONE, Method: PREINCUBATION

Measured: mutagenic call

C=CCC1(C(C)C#CCC)C(=O)N=C(O)N(C)C1=O (stereo unspecified)
inactive: Strain/Indicator: TA97, Metabolic Activation: HAMSTER, LIVER, S-9, AROCLOR 1254 (10 OR 30%), Method: PREINCUBATION inactive; negative | [1] inactive; negative | Strain/Indicator: TA97, Metabolic Activation: RAT, LIVER, S-9, AROCLOR 1254 (10 OR 30%), Method: PREINCUBATION inactive; negative | Strain/Indicator: TA98, Metabolic Activation: HAMSTER, LIVER, S-9, AROCLOR 1254 (10 OR 30%), Method: PREINCUBATION inactive; negative | Strain/Indicator: TA98, Metabolic Activation: NONE, Method: PREINCUBATION inactive; negative | Strain/Indicator: TA98, Metabolic Activation: RAT, LIVER, S-9, AROCLOR 1254 (10 OR 30%), Method: PREINCUBATION inactive; negative | Strain/Indicator: TA100, Metabolic Activation: HAMSTER, LIVER, S-9, AROCLOR 1254 (10 OR 30%), Method: PREINCUBATION inactive; negative | Strain/Indicator: TA100, Metabolic Activation: NONE, Method: PREINCUBATION inactive; negative | Strain/Indicator: TA100, Metabolic Activation: RAT, LIVER, S-9, AROCLOR 1254 (10 OR 30%), Method: PREINCUBATION inactive; negative | Strain/Indicator: TA1535, Metabolic Activation: HAMSTER, LIVER, S-9, AROCLOR 1254 (10 OR 30%), Method: PREINCUBATION inactive; negative | Strain/Indicator: TA1535, Metabolic Activation: NONE, Method: PREINCUBATION inactive; negative | Strain/Indicator: TA1535, Metabolic Activation: RAT, LIVER, S-9, AROCLOR 1254 (10 OR 30%), Method: PREINCUBATION inactive; negative

C/C(=C(\CCOC(=O)c1ccccc1)SC(=O)c1ccccc1)N(C=O)Cc1cnc(C)nc1N
inactive: [1] inactive; negative | Strain/Indicator: TA97, Metabolic Activation: RAT, LIVER, S-9, AROCLOR 1254, Method: PREINCUBATION inactive; negative | Strain/Indicator: TA102, Metabolic Activation: NONE, Method: PREINCUBATION inactive; negative | Strain/Indicator: TA102, Metabolic Activation: RAT, LIVER, S-9, AROCLOR 1254, Method: PREINCUBATION inactive; negative

C=CC(=O)OCCCCCOC(=O)C=C
inactive: Strain/Indicator: TA98, Metabolic Activation: NONE, Method: STANDARD PLATE inactive; negative | Strain/Indicator: TA98, Metabolic Activation: RAT, LIVER, S-9, AROCLOR 1254, Method: STANDARD PLATE inactive; negative | Strain/Indicator: TA98, Metabolic Activation: RAT, LIVER, S-9, SODIUM PHENOBARBITAL, Method: STANDARD PLATE inactive; negative | Strain/Indicator: TA100, Metabolic Activation: NONE, Method: STANDARD PLATE inactive; negative | Strain/Indicator: TA100, Metabolic Activation: RAT, LIVER, S-9, AROCLOR 1254, Method: STANDARD PLATE inactive; negative | Strain/Indicator: TA100, Metabolic Activation: RAT, LIVER, S-9, SODIUM PHENOBARBITAL, Method: STANDARD PLATE inactive; negative | Strain/Indicator: TA1535, Metabolic Activation: NONE, Method: STANDARD PLATE inactive; negative | Strain/Indicator: TA1535, Metabolic Activation: RAT, LIVER, S-9, AROCLOR 1254, Method: STANDARD PLATE inactive; negative | Strain/Indicator: TA1535, Metabolic Activation: RAT, LIVER, S-9, SODIUM PHENOBARBITAL, Method: STANDARD PLATE inactive; negative | Strain/Indicator: TA1537, Metabolic Activation: NONE, Method: STANDARD PLATE inactive; negative | Strain/Indicator: TA1537, Metabolic Activation: RAT, LIVER, S-9, AROCLOR 1254, Method: STANDARD PLATE inactive; negative | Strain/Indicator: TA1537, Metabolic Activation: RAT, LIVER, S-9, SODIUM PHENOBARBITAL, Method: STANDARD PLATE inactive; negative | Strain/Indicator: TA1538, Metabolic Activation: NONE, Method: STANDARD PLATE inactive; negative | Strain/Indicator: TA1538, Metabolic Activation: RAT, LIVER, S-9, AROCLOR 1254, Method: STANDARD PLATE inactive; negative | Strain/Indicator: TA1538, Metabolic Activation: RAT, LIVER, S-9, SODIUM PHENOBARBITAL, Method: STANDARD PLATE inactive; negative

— PubChem BioAssay AID1259407 (Chemical Carcinogenesis Research Information System (CCRIS), 2018)
